Experimental data reported in paper PMC8797470, “Disruption of the pentraxin 3/CD44 interaction as an efficient therapy for triple‐negative breast cancers” (Clinical and Translational Medicine, 2022).
Values belong to the compound of their own block, whether it stands above or below them. Ends that are not written are not given here.

Assays:
PTX3 = conditions: read-out: KD for PTX3 binding; cited from earlier work
Excerpt: However, knockdown of CD44 enhanced both JNK and p38 activity, implying that blockade of the PTX3/CD44 interaction positively compensates for JNK and p38 activity.

CD44 [1] = biological target: T1, CD44 (Homo sapiens, UniProt P16070); experiment: Surface plasmon resonance (BIAcore) of N-terminal CD44 on immobilised full-length PTX3; assay type: binding; conditions: mean ± standard deviation
Excerpt: The BIAcore 3000 system (GE Healthcare Co. Ltd.) was used to determine the direct protein interaction between the full‐length PTX3 (#1826‐TS; R&D Systems) and the N‐terminal of CD44 (#CD44‐3961H; Creative Biomart). Full‐length PTX3 was immobilised onto a CM5 sensor chip (GE Healthcare Co. Ltd.); the immobilisation level was 4000–6000 response units using amine‐coupling chemistry. Briefly, a mixture of 1‐Ethyl‐3‐(3‐dimethylaminopropyl) carbodiimide hydrochloride (EDC) and N‐hydroxysuccinimide activated the surface of the chip, and then diluted full‐length PTX3 (10 μg/ml in acetate buffer pH 3) was injected into the flow cells for immobilisation. Finally, the remaining activated groups were blocked by ethanolamine. The binding parameters of the experiment were measured over a 1‐min association phase and then followed by a 2‐min dissociation phase at a fluid flow rate of 10 μl/min. Phosphate‐buffered saline (PBS, pH 7.2) was used as the analyte running buffer; 0.05% sodium dodecyl sulphate was used to regenerate the chip surface before the next analyte concentration was applied. The 1:1 Langmuir binding model (BIAevaluation 4.1; GE Healthcare Co. Ltd.) were performed to calculate its corresponding association and dissociation rate constants to determine the affinity.
Target sequence in this assay (P16070 32-120 limits assumed): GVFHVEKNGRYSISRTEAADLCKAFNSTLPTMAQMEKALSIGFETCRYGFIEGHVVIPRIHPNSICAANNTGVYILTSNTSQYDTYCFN

MDA-MB-231 cells [2] = experiment: Sphere formation assay; assay type: cell-based, human; conditions: MDA-MB-231 cells treated with the recombinant protein
Experimental: Note that 5 × 10^3 MDA‐MB‐231 cells were seeded in ultralow attachment plates (Corning) per well. Then, cultured in conditional medium containing the treatment of TGF‐β1, PTX3, PTX3NA, RI37, GI40, IgG1κ, PTX3 Ab‐10 or PTX3 Ab‐49 and the DMEM/F12 (Gibco) added with B27 (Invitrogen), 10 ng/ml bFGF (Peprotech) and 20 ng/ml EGF (Abcam). Number of spheres was calculated by microscope after 2 weeks.

MDA-MB-231 cells [3] = experiment: Transwell migration and Matrigel invasion assays; assay type: cell-based, human; conditions: treatment in lower well, 18 h
Excerpt: (§1) In migration assay, MDA‐MB‐231 cells seeded in 8.0 μm pore polycarbonate membrane inserts (BD Biosciences) in 24‐well plates. In Matrigel invasion assay, inserts were pre‐coated with an appropriate amount of Matrigel first, and the same number of cells seeded on the Matrigel. After cells adhered on the inserts, serum‐free DMEM medium added in the upper wells. Serum‐free medium containing the treatments of TGF‐β1, PTX3, PTX3NA, PTX3/N, PTX3/C, RI37, GI40, AD9, GR9, IgG1κ, PTX3 Ab‐10 or PTX3 Ab‐49 were then mixed into the lower wells of the 24‐well plates. After incubating for 18 h, cells outside the insert were removed by wiping. The inside the inserts were then stained by 4′,6‐diamidino‐2‐phenylindol (DAPI). Fluorescence microscope was used for counting the total number of migrated cells with 200× magnification. Different from the experimental design for the MDA‐MB‐231 cells, the migrated 4T1‐Luc2 cells in the inside of the insert were detected by luciferase activity.

CD44 [4] = biological target: T1, CD44; experiment: Ligand binding ELISA on immobilised CD44; parameters: purchased Sino Biological Inc. 12211-H08H; conditions: wells coated with 10 μg/ml CD44, 2 h, OD 450 nm; for binding to immobilised CD44: HRP-conjugated recombinant proteins; for CD44 binding activity of peptides: biotinylated peptides, modified peptides compared with parental peptides
Experimental: Plate wells (9018; Corning Costar) were coated with 10 μg/ml of CD44 (12211‐H08H; Sino Biological Inc.) in PBS (pH 7.2) and then blocking for 1 h with the blocking buffer including 3% milk in PBS. For the stability binding experiments, the PTX3‐devired biotinylated peptides were pre‐incubated in serum for 1, 2, 4 or 6 h. For the binding experiments, the horseradish peroxidase (HRP)‐conjugated recombinant PTX3, PTX3/N, PTX3/C and PTX3NA or PTX3‐devired biotinylated peptides AD9, GR9, P2rdAD9 and P12rdGR9 (32310; LEADGENE) was responded in the well for 2 h. For the peptide of competition experiments, the PTX3‐devired biotinylated peptides RI37 and GI40 were diluted at the indicated concentration in PBS. After 2 h, PBS washed three times and then incubated with 5 μg/ml HRP‐conjugated PTX3 in PBS for 1 h at room temperature (RT). For the antibody competition experiments, Ab‐10 and Ab‐49 were incubated with 5 μg/ml HRP‐conjugated PTX3 in PBS for 2 h at RT. After incubation, the mixtures was responded in the well for 1 h at RT and then PBS washed three times, tetramethyl benzidine (TMB) was used to detect the bound HRP conjugate. After 15 min, the peroxidase reaction was stopped by adding 0.1 M H2SO4. Next, ELISA plate reader was used to detect the optical densities at 450 nm.
Target sequence in this assay (P16070 21-220 limits assumed): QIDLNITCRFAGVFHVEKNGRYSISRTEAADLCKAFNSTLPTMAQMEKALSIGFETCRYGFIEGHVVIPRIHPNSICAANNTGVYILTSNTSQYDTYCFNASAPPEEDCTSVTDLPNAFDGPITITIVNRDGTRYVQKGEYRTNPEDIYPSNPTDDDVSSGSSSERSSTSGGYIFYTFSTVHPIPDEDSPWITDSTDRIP

[5] = tested on: RANKL, MMP2, NANOG and TWIST2 transcription in MDA-MB-231 cells; experiment: Real-time quantitative PCR of PTX3-induced genes; assay type: cell-based, human; conditions: wortmannin 100 nM, BAY 11-7085 2 μM, PD98059 10 μM; pre-treated 1 h, then PTX3 24 h
Excerpt: TRIsure RNA extraction reagent (Invitrogen) extracted total RNA. SuperScript™ III Reverse Transcriptase (Invitrogen) was used to synthesis cDNA. Next, SensiFAST™ SYBR (BIOLINE) was applied to perform real‐time quantitative PCR (Q‐PCR) assay. CFX connect Real‐Time PCR System (BIO‐RAD) executed real‐time fluorescence monitoring and the melting curve analysis according to the manufacturer's recommendations. The following pairs of specific primers—human CEBPD (F): 5′‐[…]‐3′ and CEBPD (R): 5′‐[…]‐3′, human PTX3 (F): 5′‐ […]‐3′ and PTX3 (R): 5′‐ […]‐3′, human MMP2 (F): 5′‐ […]‐3′ and MMP2 (R): 5′‐ […]‐3′, human RANKL (F): 5′‐ AGAGC GCAGATGGATCCTAA‐3′ and RANKL (R): 5′‐ TTCCTTTTGCACAGC TCCTT‐3′, human TWIST2 (F): 5′‐[…]‐3′ and TWIST2 (R): 5′‐[…]‐3′, human NANOG (F): 5′‐[…]‐3′ and NANOG (R): 5′‐ […]‐3′, human GAPDH (F): 5′‐ […]‐3′ and GAPDH (R): 5′‐ […]‐3′.

4T1-Luc2 cells = experiment: Transwell migration assay, luciferase read-out; assay type: cell-based, mouse; conditions: single peptide, with PTX3 treatment
Excerpt: as §1

[6] = BIAcore 3000, full-length PTX3 amine-coupled to CM5 chip, N-terminal CD44 as analyte, PBS pH 7.2, 1:1 Langmuir model

Compound: TSG‐6: secretory protein, CEBPD‐responsive gene product that interacts with PTX3
- Kd (PTX3): 314 to 648 nM

- association rate constant, K on (CD44 [1]; [6]): 1.30 ± 0.32 × 10^2 M^–1 s^–1
- dissociation rate constant, K off (CD44 [1]; [6]): 2.43 ± 2.35 × 10^–6 s^–1
- Kd (CD44 [1]; N-terminal CD44 and full-length PTX3 binding, calculated from the rate constants, read-out: equilibrium dissociation constant, K D): 21 ± 12 nM
- binding to immobilised CD44 (CD44 [4]): could bind
Compound: pentraxin 3 [PTX3]
- sphere formation, protein alone (MDA-MB-231 cells [2]): promoted
- migration and invasion, protein alone (MDA-MB-231 cells [3]): enhanced

- binding to immobilised CD44 (CD44 [4]): not
Compound: PTX3/N: recombinant truncated mutant, N‐terminus of PTX3, amino acids 19–182

Compound: COc1cccc(-c2cc(=O)c3ccccc3o2)c1N [PD98059]
- PTX3-induced RANKL, TWIST2, MMP2 and NANOG transcription with pathway inhibitors [5]: significantly hampered

- CD44 binding activity of peptides (CD44 [4]): significantly high binding activity
Compound: AD9: peptide, PTX3 amino acids 209–217 (ACIWVKATD; also: biotin, position not given here)
- PTX3-induced migration of 4T1-Luc2 cells (4T1-Luc2 cells): efficiently inhibited

- CD44 binding activity of peptides (CD44 [4]): significantly high binding activity
Compound: GR9: peptide, PTX3 amino acids 352–360 (GGAESCHIR; also: biotin, position not given here)
- PTX3-induced migration of 4T1-Luc2 cells (4T1-Luc2 cells): efficiently inhibited

Compound: COC[C@H]1OC(=O)c2coc3c2[C@@]1(C)C1=C(C3=O)[C@@H]2CCC(=O)[C@@]2(C)C[C@H]1OC(C)=O [wortmannin]
- PTX3-induced RANKL, TWIST2, MMP2 and NANOG transcription with pathway inhibitors [5]: significantly hampered

Compound: CC(C)(C)c1ccc(S(=O)(=O)/C=C/C#N)cc1 [BAY 11‐7085]
- PTX3-induced RANKL, TWIST2, MMP2 and NANOG transcription with pathway inhibitors [5]: significantly hampered
